From PMC3322948, “Phase I first-in-human study of TAK-285, a novel investigational dual HER2/EGFR inhibitor, in cancer patients” (British Journal of Cancer, 2012)

Assay: Phase I safety, DLT and MTD in patients with solid tumours
Format: in vivo
From the text: This was a phase I, multicentre, open-label study, conducted to investigate the safety, pharmacokinetics (PKs), and determine the maximum tolerated dose (MTD) of oral TAK-285 in patients with solid tumours. Two cohorts were planned for this study: a dose escalation cohort and a repeated administration cohort. In the dose escalation cohort, patients received a single oral dose of TAK-285, followed by 2–6 days of observation without treatment, followed by treatment with the same dose if the safety was confirmed. In this cohort, patients received TAK-285 […]. One cycle was 4 weeks, consisting of 3 weeks of treatment and 1 week of observation without treatment. TAK-285 was given once daily (q.d.) or twice daily (b.i.d.). The dose was escalated from a starting dose of 50 mg until the MTD was determined. In the repeated administration cohort, patients were treated with oral TAK-285 at the MTD for at least 4 weeks in order to confirm safety.
In the dose escalation cohort, the dose of TAK-285 was decided by consideration of adverse events (AEs) observed during the first cycle. […] Dose escalation was continued until the MTD was determined. The dose of TAK-285 was increased by 100 or 40% in accordance with accelerated titration designs reported previously ([Simon et al, 1997]). A DLT was defined as any TAK-285-related grade 4 haematological toxicity, grade 3 or worse non-haematological toxicity, grade 3 or worse neutropenia (<1000 mm^–3) with fever of 38 °C or higher, or toxicity resulting in cessation of treatment for >21 consecutive days (including the stipulated period of observation without treatment).
Safety evaluations included vital signs (oxygen saturation, body temperature, breathing rate, blood pressure and pulse), clinical laboratory tests, lung function tests (pulmonary surfactant protein-A, pulmonary surfactant protein-D, Krebs von den Lunge-6 and arterial blood gas analysis), chest X-ray, and 12-lead electrocardiogram (ECG). These tests were performed weekly with the exception of chest X-rays (every 4 weeks), arterial blood gas analysis (at screening) and ECG (4 time points each at screening, on day 1 and day 8, after DLT assessment, one time point every 4 weeks). All ECG charts were submitted to the ECG evaluation committee to assess cardiac function. Adverse events were graded based on the National Cancer Institute Common Toxicity Criteria for Adverse Events, version 3.0 (Bethesda, MD, USA).

Question: What does the source list for `CC(C)(O)CC(=O)NCCn1ccc2ncnc(Nc3ccc(Oc4cccc(C(F)(F)F)c4)c(Cl)c3)c21` [TAK-285]?
Answer: patients who died during the study (cause considered unrelated to TAK-285): Two; Alanine aminotransferase increased ⩾Grade 3, number of patients (human, in vivo): 4; Alanine aminotransferase increased, incidence (human, in vivo): 46.2%; Alanine aminotransferase increased, number of patients (human, in vivo): 12; Any adverse events ⩾Grade 3, number of patients (human, in vivo): 12; Any adverse events, incidence (human, in vivo): 100.0%; Any adverse events, number of patients (human, in vivo): 26; Aspartate aminotransferase increased ⩾Grade 3, number of patients (human, in vivo): 3; Aspartate aminotransferase increased, incidence (human, in vivo): 46.2%; Aspartate aminotransferase increased, number of patients (human, in vivo): 12; Blood alkaline phosphatase increased ⩾Grade 3, number of patients (human, in vivo): 0; Blood alkaline phosphatase increased, incidence (human, in vivo): 19.2%; Blood alkaline phosphatase increased, number of patients (human, in vivo): 5; Blood bilirubin increased ⩾Grade 3, number of patients (human, in vivo): 1; Blood bilirubin increased, incidence (human, in vivo): 34.6%; Blood bilirubin increased, number of patients (human, in vivo): 9; Blood creatinine increased ⩾Grade 3, number of patients (human, in vivo): 0; Blood creatinine increased, incidence (human, in vivo): 11.5%; Blood creatinine increased, number of patients (human, in vivo): 3; Blood lactate dehydrogenase increased ⩾Grade 3, number of patients (human, in vivo): 1; Blood lactate dehydrogenase increased, incidence (human, in vivo): 19.2%; Blood lactate dehydrogenase increased, number of patients (human, in vivo): 5; Cancer pain ⩾Grade 3, number of patients (human, in vivo): 1; Cancer pain, incidence (human, in vivo): 19.2%; Cancer pain, number of patients (human, in vivo): 5; Constipation ⩾Grade 3, number of patients (human, in vivo): 0; Constipation, incidence (human, in vivo): 26.9%; Constipation, number of patients (human, in vivo): 7; Decreased appetite ⩾Grade 3, number of patients (human, in vivo): 2; Decreased appetite, incidence (human, in vivo): 23.1%; Decreased appetite, number of patients (human, in vivo): 6; Diarrhoea ⩾Grade 3, number of patients (human, in vivo): 0; Diarrhoea, incidence (human, in vivo): 34.6%; Diarrhoea, number of patients (human, in vivo): 9; Dry skin ⩾Grade 3, number of patients (human, in vivo): 0; Dry skin, incidence (human, in vivo): 15.4%; Dry skin, number of patients (human, in vivo): 4; Gamma-glutamyltransferase increased ⩾Grade 3, number of patients (human, in vivo): 4; Gamma-glutamyltransferase increased, incidence (human, in vivo): 26.9%; Gamma-glutamyltransferase increased, number of patients (human, in vivo): 7; Haemoglobin decreased ⩾Grade 3, number of patients (human, in vivo): 1; Haemoglobin decreased, incidence (human, in vivo): 11.5%; Haemoglobin decreased, number of patients (human, in vivo): 3; Nausea ⩾Grade 3, number of patients (human, in vivo): 0; Nausea, incidence (human, in vivo): 19.2%; Nausea, number of patients (human, in vivo): 5; Pyrexia ⩾Grade 3, number of patients (human, in vivo): 0; Pyrexia, incidence (human, in vivo): 23.1%; Pyrexia, number of patients (human, in vivo): 6; Rash ⩾Grade 3, number of patients (human, in vivo): 0; Rash, incidence (human, in vivo): 42.3%; Rash, number of patients (human, in vivo): 11; Stomatitis ⩾Grade 3, number of patients (human, in vivo): 0; Stomatitis, incidence (human, in vivo): 11.5%; Stomatitis, number of patients (human, in vivo): 3; Vomiting ⩾Grade 3, number of patients (human, in vivo): 0; Vomiting, incidence (human, in vivo): 15.4%; Vomiting, number of patients (human, in vivo): 4; grade 4 AEs related to TAK-285 (human, in vivo): no grade 4 AEs; grade of diarrhoea (human, in vivo): ≤ 2 grade; grade of rash (human, in vivo): ≤ 2 grade; lung function tests, chest X-rays, vital signs or ECGs (human, in vivo): No clinically significant changes; patients with AEs considered related to TAK-285, number (human, in vivo): 22; patients with AEs considered related to TAK-285, percent (human, in vivo): 84.6%; patients with dose-limiting toxicities (human, in vivo): two; pneumonitis (human, in vivo): not reported; related AEs grade 2, number of patients (human, in vivo): 11; related AEs grade 2, percent of patients (human, in vivo): 42.3%; related AEs grade 2 or lower, number of patients (human, in vivo): 17; related AEs grade 2 or lower, percent of patients (human, in vivo): 65.4%; related AEs grade 3, number of patients (human, in vivo): 5; related AEs grade 3, percent of patients (human, in vivo): 19.2%; maximum tolerated dose (MTD) (oral, patients with solid tumours): 300 mg b.i.d.
